# Assay results taken from patent US8940728B2 (priority 2012, dated 2015).
# Read-outs that look alike come from different tables or passages of the source.
# Assays:
# a3b4 nAChRs [1] = target: T1, a3b4 nAChRs (Homo sapiens, UniProt P30926+P32297); assay: FLIPR Ca+2 flux assay, epibatidine-induced calcium response, SH-SYSY cells; type: cell-based
# Method: (§1) The HEK293 (a3b4, a4b2 and a7) and SH-SYSY cell lines (a3b4) expressing nAChRs are used. Validated assays optimized with respect to sensitivity, dynamic range, signal intensity and stability for chemical probe validation and SAR refinement are used.
# (§2) Nicotinic functional assays are performed using the Molecular Devices FLIPR® Calcium 5 Assay Kit. HEK293 cells overexpressing α3β4, α4β2 or α7 (50,000 cells per well in 100 μl growth media) and are plated in clear bottom black walled 96-well microplates and incubated for 24-48 hours at 37° C., 5% CO2 until a 80-90% confluent monolayer is formed. On the day of the assay, 100 μl of Calcium 5 Dye is added to each well. Following addition of dye, cells are incubated at 25° C. for 60 minutes. Following dye loading, 50 μl of a 5× solution of reference or test compound of appropriate concentration range (0.01-30 μM), prepared in 20 mM HEPES pH 7.4 in HBSS, is added to each well. Plates are then transferred to the Molecular Devices Flexstation® which transfers 50 μL of a 5× solution (500 nM) of epibatine to each well to initiate the Ca+2 flux. […] The RFU (relative fluorescence units) in the presence of the test or reference compounds is then expressed on the percent scale. The percent inhibition of epibatidine induced Ca^+2 flux is calculated as follows: % inhibition=100%−% RFU (relative fluorescence units). […]
# a3b4 nAChRs [2] = target: T1, a3b4 nAChRs; assay: FLIPR Ca+2 flux assay, epibatidine-induced calcium response, A3B4-HEK cells; type: cell-based
# Method: as §1, §2
# [3] = target: T2, α3β4 nicotinic receptor subtype (Homo sapiens, UniProt P30926+P32297); assay: cell-based
# T2 construct: SH-SYSY cells predominantly express the α3β4 nicotinic receptor subtype; endogenous in cells; host or cells: SH-SYSY (SH-SY5Y) cells
# T2 sequence (P32297 32-505): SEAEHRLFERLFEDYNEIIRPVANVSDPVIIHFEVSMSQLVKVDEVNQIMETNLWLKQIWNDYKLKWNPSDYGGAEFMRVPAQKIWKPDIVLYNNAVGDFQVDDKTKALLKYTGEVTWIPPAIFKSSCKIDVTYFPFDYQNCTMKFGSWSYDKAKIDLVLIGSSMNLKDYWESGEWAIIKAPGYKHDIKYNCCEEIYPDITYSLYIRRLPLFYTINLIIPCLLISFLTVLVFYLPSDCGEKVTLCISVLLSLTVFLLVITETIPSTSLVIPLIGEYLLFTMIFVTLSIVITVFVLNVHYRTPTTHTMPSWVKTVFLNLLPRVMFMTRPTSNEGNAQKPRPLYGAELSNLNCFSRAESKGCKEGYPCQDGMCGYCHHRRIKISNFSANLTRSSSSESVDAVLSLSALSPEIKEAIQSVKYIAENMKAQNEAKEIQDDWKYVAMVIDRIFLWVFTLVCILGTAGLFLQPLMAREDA
# T2 sequence (P30926 22-498): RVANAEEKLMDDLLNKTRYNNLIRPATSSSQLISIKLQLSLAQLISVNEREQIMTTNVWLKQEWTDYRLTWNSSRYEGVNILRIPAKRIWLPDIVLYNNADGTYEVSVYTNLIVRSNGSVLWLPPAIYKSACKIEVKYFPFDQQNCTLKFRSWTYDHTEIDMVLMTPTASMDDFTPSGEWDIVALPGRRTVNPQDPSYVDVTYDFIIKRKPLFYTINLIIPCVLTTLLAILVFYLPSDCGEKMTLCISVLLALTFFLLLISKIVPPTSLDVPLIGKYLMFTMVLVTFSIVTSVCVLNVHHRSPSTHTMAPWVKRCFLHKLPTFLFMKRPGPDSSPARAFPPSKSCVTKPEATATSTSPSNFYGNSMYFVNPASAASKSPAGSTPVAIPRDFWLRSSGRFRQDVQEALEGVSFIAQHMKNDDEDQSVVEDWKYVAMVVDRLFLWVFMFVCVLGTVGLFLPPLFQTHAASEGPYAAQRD
# Description: as §1
# [4] = target: T3, kappa opioid receptor (kOR) (Homo sapiens, UniProt P41145); assay: Kappa opioid receptor radioligand binding
# T3 construct: expressed in transfected cells; host or cells: CHO or HEK293
# T3 sequence (P41145 whole entry): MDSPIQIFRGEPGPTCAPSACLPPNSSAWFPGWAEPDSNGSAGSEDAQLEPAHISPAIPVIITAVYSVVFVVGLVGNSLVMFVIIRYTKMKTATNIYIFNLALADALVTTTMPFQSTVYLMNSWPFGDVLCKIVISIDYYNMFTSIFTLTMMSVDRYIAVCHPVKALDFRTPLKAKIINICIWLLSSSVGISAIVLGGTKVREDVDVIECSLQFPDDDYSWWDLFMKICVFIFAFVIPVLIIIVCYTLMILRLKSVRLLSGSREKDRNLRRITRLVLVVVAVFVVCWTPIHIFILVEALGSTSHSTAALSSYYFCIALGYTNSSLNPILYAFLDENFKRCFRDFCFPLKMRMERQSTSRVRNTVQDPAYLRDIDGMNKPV
# Method: (§3) Established radioligand binding methods are used to evaluate the ability of the compounds to block reuptake of serotonin and dopamine in membrane preparations of synaptosomes. Equilibrium binding affinity values is determined for each compound at opioid receptors (μ and κ subtypes) and biogenic amine transporters (DAT and SERT). Where possible, binding experiments utilize membranes derived from CHO or HEK293 cells engineered to overexpress the human form of the receptor or transporter of interest. Radiolabeling of opioid receptors, and biogenic amine transporters utilizes conventional radioligands, buffers and incubation conditions according to published assays.
# (§4) Test compounds, reference compounds and the radioligand (Kd value) are added to binding buffer. Assays are run with test or reference compound over a range of concentration (0.0001-10 uM) in triplicate using a 96-well sample plate containing radioligands specific for the target receptor or transporter. […] Bound radioactivity is counted in a Microbeta scintillation counter. Total bound radioactivity is estimated from triplicate wells containing no test or reference compound, together with nonspecific binding and filter blanks. The average bound radioactivity in the presence of the test compounds is expressed % inhibition=100%−% radioactivity bound. […]
# mu opioid receptor (mOR) = target: T4, mu opioid receptor (mOR) (Homo sapiens, UniProt P35372); assay: Mu opioid receptor radioligand binding
# T4 construct: expressed in transfected cells; host or cells: CHO or HEK293
# T4 sequence (P35372 whole entry): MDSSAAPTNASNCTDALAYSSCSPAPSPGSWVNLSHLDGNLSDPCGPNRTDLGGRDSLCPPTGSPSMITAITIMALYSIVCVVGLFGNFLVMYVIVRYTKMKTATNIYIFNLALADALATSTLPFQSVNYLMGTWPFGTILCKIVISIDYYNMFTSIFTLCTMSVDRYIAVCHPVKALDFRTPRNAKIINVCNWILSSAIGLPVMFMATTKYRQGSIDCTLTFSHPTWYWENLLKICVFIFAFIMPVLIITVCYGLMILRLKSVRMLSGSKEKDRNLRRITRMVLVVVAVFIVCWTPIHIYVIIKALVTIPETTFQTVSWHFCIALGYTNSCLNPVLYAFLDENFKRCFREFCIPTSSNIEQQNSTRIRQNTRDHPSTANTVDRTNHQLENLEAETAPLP
# Method: as §3, §4
# 5-HT transporter = 5-HT transporter (Homo sapiens, UniProt P31645); assay: 5-HT transporter radioligand binding
# Chain of 5-HT transporter (P31645 whole entry): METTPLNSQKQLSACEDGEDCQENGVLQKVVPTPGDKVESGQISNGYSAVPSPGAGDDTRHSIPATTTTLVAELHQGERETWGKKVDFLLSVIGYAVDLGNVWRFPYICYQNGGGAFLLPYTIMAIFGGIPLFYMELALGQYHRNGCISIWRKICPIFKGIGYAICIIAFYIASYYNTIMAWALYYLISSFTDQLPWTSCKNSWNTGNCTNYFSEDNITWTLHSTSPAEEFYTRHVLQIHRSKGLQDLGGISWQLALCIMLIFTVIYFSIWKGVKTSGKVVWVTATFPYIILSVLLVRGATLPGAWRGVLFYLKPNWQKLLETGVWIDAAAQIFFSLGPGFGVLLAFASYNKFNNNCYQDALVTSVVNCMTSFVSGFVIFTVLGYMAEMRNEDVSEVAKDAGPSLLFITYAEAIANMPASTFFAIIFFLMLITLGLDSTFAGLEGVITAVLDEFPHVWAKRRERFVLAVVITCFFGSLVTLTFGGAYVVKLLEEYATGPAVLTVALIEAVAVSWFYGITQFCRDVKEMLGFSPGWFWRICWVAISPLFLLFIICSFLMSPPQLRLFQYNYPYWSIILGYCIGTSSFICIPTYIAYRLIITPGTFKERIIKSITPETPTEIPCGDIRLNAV
# Method: as §3, §4
# [5] = Binding panel of over 50 receptors, transporters, ion channels, second messengers, growth factor receptors and enzymes; settings: at physiologically relevant concentrations
# Description: The association between cigarette smoking and the presence and severity of suicidal behavior across major psychiatric disorders may be related to lower brain serotonin function in smokers with depression).
# [6] = CNS penetration across the brain blood barrier; settings: in vivo
# Method: Mice are dosed with compounds. Brain to blood ratios are determined by HPLC and LC/MS/MS analysis following oral administration of the test compounds in mice.
# a3b4 nAChRs [7] = target: T1, a3b4 nAChRs; assay: Relative potency on epibatidine-induced calcium response at a3b4 nAChRs; type: cell-based
# Method: as §1
# Nicotinic functional assays are performed using the Molecular Devices FLIPR® Calcium 5 Assay Kit. HEK293 cells overexpressing α3β4, α4β2 or α7 (50,000 cells per well in 100 μl growth media) and are plated in clear bottom black walled 96-well microplates and incubated for 24-48 hours at 37° C., 5% CO2 until a 80-90% confluent monolayer is formed. On the day of the assay, 100 μl of Calcium 5 Dye is added to each well. Following addition of dye, cells are incubated at 25° C. for 60 minutes. Following dye loading, 50 μl of a 5× solution of reference or test compound of appropriate concentration range (0.01-30 μM), prepared in 20 mM HEPES pH 7.4 in HBSS, is added to each well. Plates are then transferred to the Molecular Devices Flexstation® which transfers 50 μL of a 5× solution (500 nM) of epibatine to each well to initiate the Ca+2 flux. Additional wells (in quadruplicate) are prepared with no added test or reference ligand for measurement of 100% flux. The RFU (relative fluorescence units) in the presence of the test or reference compounds is then expressed on the percent scale. The percent inhibition of epibatidine induced Ca^+2 flux is calculated as follows: % inhibition=100%−% RFU (relative fluorescence units). The IC50 values for reference and test compounds are obtained by fitting normalized RFU data using Graphpad Prism software.
# T1 sequence (P30926 22-498): as the sequence (P30926 22-498) above
# T1 sequence (P32297 32-505): as the sequence (P32297 32-505) above
Molecule,IC50 (a3b4 nAChRs [1]) [µM],IC50 (a3b4 nAChRs [2]) [µM],"IC50 ([3]; IC50 (uM) Caliper, inhibition of epibatidine-induced calcium response, Caliper) [µM]","IC50 ([3]; IC50 as antagonist for epibatine induced Ca+2 flux, SH-SYSY cells, preliminary studies by Caliper Life Sciences) [µM]",Affinity at kappa opioid receptors [4] [µM],Affinity at mu opioid receptors (mu opioid receptor (mOR)) [nM],Affinity to the 5-HT transporter (5-HT transporter) [nM],Targets bound in the panel [5],Crossing of the BBB and concentration in brain [6],Potency as inhibitor of epibatidine-induced calcium response compared with 18-MC and noribogaine (a3b4 nAChRs [7]; in words),"IC50 (a3b4 nAChRs [1]; SH-SYSY cells, read-out: IC50 (uM) SH-SYSY, inhibition of epibatidine-induced calcium response) [µM]","IC50 ([3]; Caliper, read-out: IC50 (uM) Caliper, inhibition of epibatidine-induced calcium response) [µM]","IC50 ([3]; SH-SYSY cells, preliminary studies by Caliper Life Sciences, read-out: IC50 as antagonist for epibatine induced Ca+2 flux) [µM]","IC50 (a3b4 nAChRs [7]; reference value for the ratios of Table 4, read-out: Potency of 18-MC at a3b4 nAChRs taken as reference) [µM]",Ratio from 18-MC (relative potency at a3b4 nAChRs) (a3b4 nAChRs [7]; relative to 18-MC = 1 (4 uM))
"CC[C@H]1CC2C[C@H]3c4[nH]c5ccc(O)cc5c4CCN(C2)C13 [Noribogaine, 12-hydroxyibogamine]",0.3,18,1,0.462,1,900,50,"only bound to SERT, DAT, mu and kappa opioid receptors",cross the BBB and reach micromolar concentrations in brain,,,,,,
Ibogaine,,,,,,,,,,more potent inhibitors than 18-MC,,,,,
"COCC[C@H]1CC2CN3CCc4c([nH]c5ccccc45)[C@](C(=O)OC)(C2)[C@H]13 [Compound 18-MC, 18-methoxycoronaridine]",,,,,,,,,cross the BBB and reach micromolar concentrations in brain,,3.9,3.9,3.89,4,1
